Experimental data as given in ChEMBL document CHEMBL3102787, “Linear propargylic alcohol functionality attached to the indazole-7-carboxamide as a JAK1-specific linear probe group” (Bioorg Med Chem, 2014).

How the values were obtained:
[1] = target: T1, Tyrosine-protein kinase JAK3 (Homo sapiens) (UniProt P52333); conditions: at 10 µM
T1 sequence (whole entry): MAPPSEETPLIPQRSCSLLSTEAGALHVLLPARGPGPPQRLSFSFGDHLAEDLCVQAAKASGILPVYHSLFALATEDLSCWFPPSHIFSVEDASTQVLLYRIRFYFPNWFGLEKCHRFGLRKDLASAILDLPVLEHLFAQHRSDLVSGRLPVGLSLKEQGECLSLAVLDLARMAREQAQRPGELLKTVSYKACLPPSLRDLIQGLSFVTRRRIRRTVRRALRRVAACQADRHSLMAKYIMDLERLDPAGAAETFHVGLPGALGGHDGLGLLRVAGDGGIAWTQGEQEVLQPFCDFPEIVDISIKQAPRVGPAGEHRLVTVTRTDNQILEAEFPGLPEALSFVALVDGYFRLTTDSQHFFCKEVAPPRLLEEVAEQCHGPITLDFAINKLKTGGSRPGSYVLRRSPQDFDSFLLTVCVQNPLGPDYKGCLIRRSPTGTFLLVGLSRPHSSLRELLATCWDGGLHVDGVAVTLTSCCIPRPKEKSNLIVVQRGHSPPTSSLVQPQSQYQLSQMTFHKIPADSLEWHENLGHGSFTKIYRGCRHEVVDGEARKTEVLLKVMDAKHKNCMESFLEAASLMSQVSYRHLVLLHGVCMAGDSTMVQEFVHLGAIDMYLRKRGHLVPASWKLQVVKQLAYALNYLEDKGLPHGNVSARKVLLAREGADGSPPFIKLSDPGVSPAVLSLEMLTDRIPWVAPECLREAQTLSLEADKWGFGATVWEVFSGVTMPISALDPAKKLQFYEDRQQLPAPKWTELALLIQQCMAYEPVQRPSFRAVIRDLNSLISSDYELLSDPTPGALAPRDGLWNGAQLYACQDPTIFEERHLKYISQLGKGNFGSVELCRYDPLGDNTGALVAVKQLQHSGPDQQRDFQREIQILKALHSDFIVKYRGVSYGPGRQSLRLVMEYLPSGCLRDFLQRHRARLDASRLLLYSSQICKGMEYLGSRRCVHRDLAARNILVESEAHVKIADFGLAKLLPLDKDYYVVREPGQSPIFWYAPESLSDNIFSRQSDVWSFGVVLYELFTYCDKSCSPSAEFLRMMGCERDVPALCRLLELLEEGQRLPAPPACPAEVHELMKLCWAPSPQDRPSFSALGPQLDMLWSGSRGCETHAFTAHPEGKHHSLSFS
Description: Inhibition of JAK3 (unknown origin) at 10 uM

[2] = target: Tyrosine-protein kinase JAK2 (Homo sapiens) (UniProt O60674); conditions: at 10 µM
Tyrosine-protein kinase JAK2 (Homo sapiens), sequence (O60674 whole entry): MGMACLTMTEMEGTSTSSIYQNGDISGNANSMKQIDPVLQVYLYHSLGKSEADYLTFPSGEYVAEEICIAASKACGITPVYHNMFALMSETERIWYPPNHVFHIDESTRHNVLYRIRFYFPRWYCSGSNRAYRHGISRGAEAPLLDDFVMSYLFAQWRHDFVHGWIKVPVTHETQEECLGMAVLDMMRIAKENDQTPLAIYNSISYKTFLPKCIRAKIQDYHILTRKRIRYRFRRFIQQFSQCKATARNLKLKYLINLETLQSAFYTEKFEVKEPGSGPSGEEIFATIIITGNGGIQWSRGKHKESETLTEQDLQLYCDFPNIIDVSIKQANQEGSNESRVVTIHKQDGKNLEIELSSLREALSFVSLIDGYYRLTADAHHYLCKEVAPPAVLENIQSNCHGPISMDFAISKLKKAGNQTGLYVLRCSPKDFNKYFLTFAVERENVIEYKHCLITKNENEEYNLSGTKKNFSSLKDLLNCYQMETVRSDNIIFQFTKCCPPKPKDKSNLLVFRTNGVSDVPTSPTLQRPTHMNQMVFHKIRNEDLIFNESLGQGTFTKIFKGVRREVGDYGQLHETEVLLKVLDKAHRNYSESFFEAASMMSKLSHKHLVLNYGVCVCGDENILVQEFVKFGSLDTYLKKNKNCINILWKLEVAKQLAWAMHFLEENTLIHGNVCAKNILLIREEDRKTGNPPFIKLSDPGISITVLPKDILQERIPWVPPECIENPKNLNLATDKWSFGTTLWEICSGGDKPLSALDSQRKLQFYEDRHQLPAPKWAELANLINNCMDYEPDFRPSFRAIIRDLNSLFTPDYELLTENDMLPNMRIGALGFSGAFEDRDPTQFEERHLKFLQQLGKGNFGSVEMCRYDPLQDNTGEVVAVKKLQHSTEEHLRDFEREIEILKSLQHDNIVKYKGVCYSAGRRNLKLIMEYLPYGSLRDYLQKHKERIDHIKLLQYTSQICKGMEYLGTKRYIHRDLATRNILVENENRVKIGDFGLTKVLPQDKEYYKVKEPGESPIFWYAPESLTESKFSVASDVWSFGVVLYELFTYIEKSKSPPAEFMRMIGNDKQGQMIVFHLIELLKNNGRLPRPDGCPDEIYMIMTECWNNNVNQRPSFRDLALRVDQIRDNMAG
Description: Inhibition of JAK2 (unknown origin) at 10 uM

Row | SMILES | inhibition [1] | inhibition [2]
1 | NC(=O)c1cc(-c2cccc3[nH]ncc23)cc2cn[nH]c12 | 22.5% | 1.2%
2 | NC(=O)c1cc(-c2cc(N)cc3[nH]ncc23)cc2c(C#CCO)n[nH]c12 | 38.1% | -0.4%
3 | NC(=O)c1cc(-c2cc(N)cc3[nH]ncc23)cc2cn[nH]c12 | 15.7% | 9.1%
4 | NC(=O)c1cc(-c2cccc3[nH]ncc23)cc2c(C#CCO)n[nH]c12 | 24.9% | 2.2%
5 | NC(=O)c1cc(-c2cccc3[nH]ncc23)cc2c(C#CCCO)n[nH]c12 | 32.3% | 6.7%
6 | NC(=O)c1cc(-c2cc(N)cc3[nH]ncc23)cc2c(C#CCCO)n[nH]c12 | 48.1% | 2.5%
